The test system of series [1] is pig kidney cell line (LLC-PK1). Briefly: Chromium release assay, plasma incubated with soluble carbohydrate haptens. In kind it is cell-based. The conditions noted are these: heat inactivated human plasma (O and A), 1 ml incubated overnight at 4° C. with 0.215 g hapten; FIGS. 8A and 8B.
Description: Undiluted heat-inactivated plasma (100 μl) was incubated with 100 μl of chromium-labelled target cells (2×10^4 cells) in 96 well V bottom microtiter plates (Dynatech Lab., Chantilly, Va., U.S.A.: Cat.# 1-220-25X) at 37° C. for 1 hour with shaking (20 rpm). A 1/15 dilution of rabbit complement (LOWTOX-M from Cedarlane Laboratories Ltd., Hornby, Ontario, Canada: Cat.# CL3051) was added to each well. The plate was again incubated for 1 hour at 37° C. with shaking. Plates were then spun at 1000 rpm and supernatants were counted for chromium content in the Beckman gamma 4000 counter (Beckman Instruments, Inc., Fullerton, Calif., U.S.A.). Spontaneous and total release controls were also run. Spontaneous counts were always less than 5% of the total counts, and typical total counts of cells ranged from 10,000 to 20,000 cpm.
This procedure was done to investigate the potential for inhibiting human preformed cytotoxic antibodies with carbohydrate(s) haptens. […] The chromium release assay was then performed with treated and untreated plasma; the pig kidney cell line (LLC-PK1) was used as the target cell.
Series [2] deals with Human Anti-Pig Kidney antibodies. Briefly: ELISA: human antibodies eluted from pig kidney binding to carbohydrate-BSA antigens. The conditions noted are these: BSA well O.D. subtracted. The procedure: (§1) Organs from two populations of pigs were used to purify human anti-pig antibodies. The pig strains were Poland China and Yorkshire. Antibody preparations were obtained by perfusing 100-200 ml of human plasma (O or AB) through pig hearts, pig kidneys or through a column containing solid support coated with pig red cell stroma. After washing the tissues thoroughly with 0.15 M NaCl, the retained antibodies were eluted from the tissue or column using 200 ml of 3M NaSCN. The antibodies were concentrated, and then the protein content determined. Carbohydrate antigens were made by covalent binding of the synthetic oligosaccharides with an aliphatic linking arm (CH2)8COOCH3 to BSA as described by Pinto and Bundle (1983)^19 and/or Lemieux, Bundle, Baker (U.S. Pat. No. 4,137,401)^13 (ten to twenty haptens per molecule of BSA). Example 5, infra, describes this procedure as applied to carbohydrate 2 of FIG. 1A. Structures and trivial names of some of the monosaccharides and oligosaccharides used are included in FIGS. 1A to 1H. The use of synthetic carbohydrate structures to detect antibody binding has been previously described in U.S. Pat. No. 4,137,401^13. The technology used for the ELISA assay for detecting anti-carbohydrate antibodies is a combination of the work from numerous groups. Wells in 96 microtitration plates (Flow Laboratories, Inc., McLean Va., U.S.A.) were coated by incubation at room temperature for 16 hours with 2 μg of BSA-glycoconjugates or BSA per well (20 μg BSA-conjugate/ml diluted in PBS). The coating solutions were removed and 200 μl/well of PBS containing 5% BSA was added. After a 4 hours incubation (22° C.), the wells were washed twice with PBS, then once with H2O. The plates were inverted, allowed to dry, and stored at room temperature. Immediately before testing, 200 μl of PBS containing 1% BSA (1% BSA/PBS) was added to each of the wells and left to stand for 10 to 20 minutes at ambient temperature. The human anti-pig preparations were diluted to between 15 to 70 μg of eluted protein per ml of 1% BSA/PBS. The BSA/PBS was removed and 100 μl of diluted anti-pig preparation was added to the appropriate wells, then incubated at 4° C. for 16 hours. The antibody preparations were removed and the wells were washed 4 times with PBS (200 μl/wash). Alkaline phosphatase-conjugated reagents (anti-human polyvalent (α, γ and μ chain specific), anti-human IgG (γ chain specific) and anti-human IgM (μ chain specific)) from Sigma Chemical Company (St. Louis, Mo., U.S.A.) were each diluted 1/500 in 1% BSA/PBS. One hundred μl of this mixture was added to each well. After 2 hours, wells were washed four times with PBS, then 100 μl/well of 1.0 mg of p-nitrophenyl phosphate/ml of 1 M diethanolamine-HCl (pH 9.8) containing 19% BSA and 500 μM MgCl2 was added. After 1 hour, optical densities at 405 nm (O.D.) were measured using a Microplate Autoreader (Model EL 309, BIO-TEK Instruments, Winooski, Vt., U.S.A.). The O.D. results for BSA-coated wells were subtracted from the results for the glycoconjugate-BSA-coated wells for each preparation. The assays were performed in duplicate.
Background: An ELISA detects its analyte on a solid surface through an enzyme-linked reagent.

In series [3] the test system is Human Anti-Pig Heart antibodies. Briefly: ELISA: human antibodies eluted from pig heart binding to carbohydrate-BSA antigens. The conditions noted are these: for Optical Density (405 nm): BSA well O.D. subtracted; for O.D. readings: most of the human anti-pig heart preparations. The protocol:
as §1

For series [4], the system named is human antibodies eluted from pig heart, pig kidney and/or pig red cell stroma. In words: ELISA: human anti-pig antibody preparations overall binding to carbohydrate antigens. The protocol:
Organs from two populations of pigs were used to purify human anti-pig antibodies. The pig strains were Poland China and Yorkshire. Antibody preparations were obtained by perfusing 100-200 ml of human plasma (O or AB) through pig hearts, pig kidneys or through a column containing solid support coated with pig red cell stroma. After washing the tissues thoroughly with 0.15 M NaCl, the retained antibodies were eluted from the tissue or column using 200 ml of 3M NaSCN. The antibodies were concentrated, and then the protein content determined. Carbohydrate antigens were made by covalent binding of the synthetic oligosaccharides with an aliphatic linking arm (CH2)8COOCH3 to BSA as described by Pinto and Bundle (1983)^19 and/or Lemieux, Bundle, Baker (U.S. Pat. No. 4,137,401)^13 (ten to twenty haptens per molecule of BSA). Example 5, infra, describes this procedure as applied to carbohydrate 2 of FIG. 1A. Structures and trivial names of some of the monosaccharides and oligosaccharides used are included in FIGS. 1A to 1H. The use of synthetic carbohydrate structures to detect antibody binding has been previously described in U.S. Pat. No. 4,137,401^13. […] After 1 hour, optical densities at 405 nm (O.D.) were measured using a Microplate Autoreader (Model EL 309, BIO-TEK Instruments, Winooski, Vt., U.S.A.). […]

Where [5] appears, read: Human Anti-Pig Kidney preparation 5 A°, human O plasma adsorbed onto tissue.
Where [6] appears, read: Human Anti-Pig Kidney preparation 5 B^AB, human AB plasma adsorbed onto tissue.
Where [7] appears, read: Human Anti-Pig Kidney preparation 6 A°, human O plasma.
Where [8] appears, read: Human Anti-Pig Kidney preparation 6 B^AB, human AB plasma.
The mark [9] stands for this setting: Human Anti-Pig Kidney preparation 7 A^AB, human AB plasma.
[10] abbreviates: Human Anti-Pig Kidney preparation 7 B°, human O plasma.
Setting [11] is: Human Anti-Pig Kidney preparation 8 A°, human O plasma, pig of A-phenotype.
The mark [12] stands for this setting: Human Anti-Pig Kidney preparation 9 B^AB, human AB plasma.
Setting [13] is: Human Anti-Pig Heart preparation 5^AB, human AB plasma.
The mark [14] stands for this setting: Human Anti-Pig Heart preparation 6°, human O plasma.
Where [15] appears, read: Human Anti-Pig Heart preparation 7^AB, human AB plasma.
Setting [16] is: Human Anti-Pig Heart preparation 9°, human O plasma.

From US6607723B1, “Methods and compositions for attenuating antibody-mediated xenograft rejection in human recipients” (priority 1991, dated 2003) come the findings set out here.

Bounds are passed on as bounds.

Consider `C[C@@H]1O[C@@H](O[C@H]2C(O)O[C@H](CO)[C@H](O)[C@@H]2O[C@H]2O[C@H](CO)[C@H](O)[C@H](O)[C@H]2O)[C@@H](O)[C@H](O)[C@@H]1O` (stereo partly shown) [B trisaccharide], for which the “cytotoxic effect of antibodies to the pig cell line” value in series [1] was “partially inhibited”.
For `C[C@@H]1O[C@@H](O)[C@H](O)[C@H](O)[C@H]1O` [formula 31, α-L-Rhamnose], the “Optical Density (405 nm)” value worked out at 0.2 in series [2] (setting [5]); 0.0 in series [2] (setting [6]); 0.3 in series [2] (setting [7]); 0.5 in series [2] (setting [8]); 1.7 in series [2] (setting [9]); 0.1 in series [2] (setting [10]). The “Optical Density (405 nm)” value in series [2] (setting [11]) is 0.0; in series [2] (setting [12]), 0.1; in series [3] (setting [13]), 0.7; in series [3] (setting [14]) it was 0.4; in series [3] (setting [15]), greater than 2.0; in series [3] (setting [16]), 0.6. The “O.D. readings” value in series [3] is listed as “some of the highest readings”.
N-acetyl-β-D-Glucosaminide [formula 25]: the “Optical Density (405 nm)” value is listed as 0.5 in series [2] (setting [5]); 0.7 in series [2] (setting [6]); 0.4 in series [2] (setting [7]); 1.0 in series [2] (setting [8]); 1.1 in series [2] (setting [9]); 0.5 in series [2] (setting [10]). Further, the “Optical Density (405 nm)” value in series [2] (setting [11]) is recorded as 0.1; in series [2] (setting [12]) it was 0.1; in series [3] (setting [13]), 2.0; in series [3] (setting [14]), 0.4; in series [3] (setting [15]), greater than 2.0; in series [3] (setting [16]), 1.5. For the same compound, in series [3], the “O.D. readings” value is “some of the highest readings”.
As to “(αGal(1-3)βGal(1-4)βGlc-O—(CH2)8CONH)17-BSA [formula 2]”, the “Optical Density (405 nm)” value in series [2] (setting [5]) is 1.9; in series [2] (setting [6]) it was 1.3; in series [2] (setting [7]) it was greater than 2.0; in series [2] (setting [8]), greater than 2.0; in series [2] (setting [9]), 0.8; in series [2] (setting [10]), 1.8. For the same compound, the “Optical Density (405 nm)” value in series [2] (setting [11]) was 1.2; in series [2] (setting [12]), greater than 2.0; in series [3] (setting [13]), 1.0; in series [3] (setting [14]), 0.3; in series [3] (setting [15]), 1.2; in series [3] (setting [16]) it was 0.8. The “antibodies to the carbohydrate present in eluted antibody preparations” value in series [4] (every preparation of antibodies tested (Table 1)) is on record as “present in every preparation”. The “reactivity in ELISA” value in series [4] (majority of samples tested, including anti-pig heart and anti-pig kidney) is reported as “most reactivity”.
Consider `CC(=O)N[C@@H]1[C@@H](O)[C@H](O[C@@H]2O[C@H](CO)[C@@H](O)[C@H](O)[C@H]2NC(C)=O)[C@@H](CO)O[C@H]1O` [formula 26, βGlcNAc(1-4)βGlcNAc], for which the “Optical Density (405 nm)” value was 0.4 in series [2] (setting [5]); 0.3 in series [2] (setting [6]); 0.2 in series [2] (setting [7]); 0.4 in series [2] (setting [8]); 0.9 in series [2] (setting [9]); 0.1 in series [2] (setting [10]). The “Optical Density (405 nm)” value in series [2] (setting [11]) was 0.0; in series [2] (setting [12]), 0.1; in series [3] (setting [13]) it was 0.5; in series [3] (setting [14]) it was 0.2; in series [3] (setting [15]), greater than 2.0; in series [3] (setting [16]), 1.7. Also, in series [3], the “O.D. readings” value is on record as “some of the highest readings”.
Take `CC(=O)N[C@H]1[C@H](O[C@@H]2[C@H](O)[C@@H](O)[C@H](C)O[C@H]2O)O[C@H](CO)[C@@H](O)[C@@H]1O[C@@H]1O[C@@H](C)[C@H](O)[C@@H](O)[C@H]1O` [formula 32, α-L-Rha(1-3)βGlcNAc(1-2)α-L-Rha]: the “Optical Density (405 nm)” value was found to be 1.4 in series [2] (setting [5]); 0.8 in series [2] (setting [6]); 0.1 in series [2] (setting [7]); 0.3 in series [2] (setting [8]); 1.9 in series [2] (setting [9]); 0.8 in series [2] (setting [10]). For the same compound, the “Optical Density (405 nm)” value in series [2] (setting [11]) turned out to be 0.1; in series [2] (setting [12]), 0.1; in series [3] (setting [13]) it was 1.0; in series [3] (setting [14]), 0.3; in series [3] (setting [15]), 1.6; in series [3] (setting [16]), 1.1. The “O.D. readings” value in series [3] is given as “some of the highest readings”.
